Assays:
Assay in all cases: relative viability (nuclei count vs DMSO), 5 days (fraction); higher = more cells survive
[1] = compound: COc1cc2nc(N3CCCN(C)CC3)nc(NC3CCN(Cc4ccccc4)CC3)c2cc1OC + CC(=O)c1c(C)c2cnc(Nc3ccc(N4CCNCC4)cn3)nc2n(C2CCCC2)c1=O [Palbociclib] (partner 0.5 µM)
In short: (§1)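 For relative viability, nuclei counts in treated wells were divided by those in vehicle wells. Lung cancer cell lines had been pin-tool dosed in 1536-well plates the day after seeding and cultured for 5 days, then fixed and stained in one step (final 0.05% Triton X-100, 1% formaldehyde, 1 ug/ml Hoechst) and imaged at 4×. Doses were one drug alone or a fixed anchor-drug dose plus five library-drug doses (not always all listed) in √10 steps, and values are duplicate-plate medians.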

[2] = compound: COc1cc2nc(N3CCCN(C)CC3)nc(NC3CCN(Cc4ccccc4)CC3)c2cc1OC + Cc1nc(NC(=O)N2CCC[C@H]2C(N)=O)sc1-c1ccnc(C(C)(C)C(F)(F)F)c1 [Alpelisib] (partner 2 µM)
In short: as §1

[3] = compound: Cc1cc([C@@H](C)Nc2ccccc2C(=O)O)c2nc(N3CCOCC3)cc(=O)n2c1 [AZD6482] + Nc1nc2[nH]cc(CCc3ccc(C(=O)N[C@@H](CCC(=O)O)C(=O)O)cc3)c2c(=O)[nH]1 [Pemetrexed] (partner 0.2 µM)
In short: as §1

[4] = compound: Cc1cc([C@@H](C)Nc2ccccc2C(=O)O)c2nc(N3CCOCC3)cc(=O)n2c1 [AZD6482] + CS(=O)(=O)N1CCN(Cc2cc3nc(-c4cccc5[nH]ncc45)nc(N4CCOCC4)c3s2)CC1 [Pictilisib] (partner 1 µM)
In short: as §1

Row | Cell Line | relative viability ([1]; first compound 0.2 µM) | relative viability ([1]; first compound 0.6325 µM) | relative viability ([1]; first compound 2 µM) | relative viability ([1]; first compound 6.325 µM) | relative viability ([2]; first compound 0.2 µM) | relative viability ([2]; first compound 0.6325 µM) | relative viability ([2]; first compound 2 µM) | relative viability ([2]; first compound 6.325 µM) | relative viability ([3]; first compound 0.08 µM) | relative viability ([3]; first compound 0.253 µM) | relative viability ([3]; first compound 0.8 µM) | relative viability ([3]; first compound 2.53 µM) | relative viability ([3]; first compound 8 µM) | relative viability ([4]; first compound 0.08 µM) | relative viability ([4]; first compound 0.253 µM) | relative viability ([4]; first compound 0.8 µM) | relative viability ([4]; first compound 2.53 µM) | relative viability ([4]; first compound 8 µM)
1 | HCC-78 | 0.491 | 0.448 | 0.508 | 0.463 | 0.354 | 0.364 | 0.297 | 0.251 | 0.87 | 0.857 | 0.926 | 0.862 | 0.953 | 0.218 | 0.186 | 0.184 | 0.182 | 0.214
2 | NCI-H2087 | 0.233 | 0.201 | 0.219 | 0.215 | 1.15 | 1.2 | 1.27 | 1.05 | 0.682 | 0.63 | 0.596 | 0.593 | 0.674 | 0.758 | 0.723 | 0.91 | 0.611 | 0.889
3 | BEN | 0.437 | 0.471 | 0.473 | 0.476 | 1.07 | 1 | 1.13 | 1.06 | 0.766 | 0.589 | 0.829 | 0.512 | 0.703 | 0.607 | 0.506 | 0.655 | 0.434 | 0.557
4 | LCLC-103H | 0.479 | 0.47 | 0.452 | 0.444 | 1.04 | 0.648 | 0.939 | 0.994 | 0.491 | 0.506 | 0.49 | 0.462 | 0.456 | 0.6 | 0.627 | 0.636 | 0.439 | 0.591
5 | EKVX | 0.407 | 0.412 | 0.395 | 0.301 | 0.918 | 0.833 | 0.92 | 0.784 | 0.368 | 0.373 | 0.317 | 0.265 | 0.348 | 0.378 | 0.326 | 0.441 | 0.235 | 0.467
6 | LXF-289 | 0.583 | 0.603 | 0.615 | 0.586 | 1.04 | 0.964 | 1.06 | 0.986 | 0.678 | 0.94 | 1.08 | 0.849 | 0.922 | 0.66 | 0.736 | 0.739 | 0.638 | 0.745
7 | NCI-H650 | 0.394 | 0.307 | 0.31 | 0.295 | 1.06 | 0.997 | 1.18 | 1 | 1.01 | 0.859 | 0.874 | 0.568 | 0.441 | 0.931 | – | 0.908 | 0.541 | 0.813
8 | NCI-H2085 | 0.455 | 0.484 | 0.5 | 0.458 | 1.06 | 0.972 | 1 | 0.799 | 0.567 | 0.384 | 0.407 | 0.317 | 0.299 | 0.428 | 0.359 | 0.404 | 0.33 | 0.407
9 | NCI-H1793 | 0.32 | 0.312 | 0.316 | 0.292 | 0.677 | 0.722 | 0.812 | 0.785 | 0.509 | 0.545 | 0.818 | 0.416 | 0.383 | 0.261 | 0.336 | 0.293 | – | 0.259
10 | LC-2-ad | 0.509 | 0.533 | 0.444 | 0.52 | 0.883 | 0.89 | 0.943 | 0.896 | 0.279 | 0.293 | 0.274 | 0.302 | 0.292 | 0.36 | 0.426 | 0.504 | 0.236 | 0.567
11 | COR-L 105 | 0.375 | 0.398 | 0.364 | 0.396 | 1.11 | 0.86 | 1.08 | 0.732 | 0.935 | 1.13 | 1.26 | 0.761 | 1.21 | 0.362 | 0.388 | 0.428 | 0.265 | 0.309
12 | NCI-H1355 | 0.404 | 0.379 | 0.423 | 0.386 | 0.83 | 0.861 | 0.856 | 0.805 | 0.939 | 1.07 | 1.07 | 0.856 | 0.875 | 0.302 | 0.43 | 0.425 | 0.244 | 0.453
13 | H3255 | 0.312 | 0.316 | 0.327 | 0.3 | 0.632 | 0.852 | 0.86 | 0.523 | 0.535 | 0.577 | 0.583 | 0.464 | 0.507 | 0.461 | 0.434 | 0.453 | 0.305 | 0.47
14 | NCI-H1993 | 0.582 | 0.721 | 0.77 | 0.748 | 0.668 | 0.637 | 0.692 | 0.662 | 0.464 | 0.58 | 0.48 | 0.4 | 1.03 | 0.907 | 0.779 | – | – | 0.769
15 | NCI-H1734 | 0.375 | 0.367 | 0.292 | 0.38 | 0.657 | 0.613 | 0.798 | 0.736 | 0.408 | 0.442 | 0.408 | 0.396 | 0.397 | 0.395 | 0.452 | 0.485 | 0.305 | 0.408
16 | HOP-62 | 0.436 | 0.386 | 0.506 | 0.491 | 0.878 | 0.932 | 0.829 | 0.877 | 0.335 | 0.386 | 0.363 | 0.335 | 0.379 | 0.76 | 0.741 | 0.8 | 0.556 | 0.667
17 | LOU-NH91 | 0.464 | 0.424 | 0.588 | 0.552 | 0.736 | 0.755 | 0.588 | 0.642 | 0.376 | 0.373 | 0.444 | 0.521 | 0.493 | 0.491 | 0.513 | 0.516 | 0.48 | 0.493
18 | NCI-H2228 | 0.63 | 0.808 | 0.835 | 0.509 | 0.587 | 0.685 | 0.661 | 0.409 | 0.325 | 0.3 | 0.325 | 0.303 | 0.309 | 0.368 | 0.691 | 0.266 | 0.387 | 0.387

— the supplement of paper PMC10307832
